Data reported in patent publication US10167262B2, “Herbicidal substituted 3-arylpyrazoles” (FMC CORPORATION, priority 2014, dated 2019).

Legend:
Format in all cases: in vivo
[1] = tested on: smartweed (ladysthumb smartweed, Polygonum persicaria); experiment: Test E pre-/postemergence greenhouse test, plant response rating 0-100; settings: Postemergence, 250 g ai/ha; scale 0 to 100
[2] = tested on: ragweed (common ragweed, Ambrosia elatior); experiment: as above; settings: Preemergence, scale 0 to 100
Method in brief: (§1)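 Preemergence application to planted silt loam and postemergence application to 2–18 cm seedlings are run simultaneously. Evaluation is visual against controls after 14 to 21 days, scored from 0 (no effect) to 100 (complete control).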

[3] = tested on: velvetleaf (Abutilon theophrasti); experiment: as above; settings: Preemergence, scale 0 to 100
Method in brief: as §1

[4] = tested on: surinam grass (Brachiaria decumbens); experiment: as above; settings: Preemergence, scale 0 to 100
Method in brief: as §1

[5] = tested on: goosegrass (Eleusine indica); experiment: as above; settings: Preemergence, scale 0 to 100
[6] = tested on: waterhemp (common waterhemp, Amaranthus rudis); experiment: Test C pre-/postemergence greenhouse test, plant response rating 0-100
Method in brief: (§2)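 Scores run from 0, no effect, to 100, complete control, assigned by eye after treated plants and controls spent 13 to 15 days in a greenhouse. Soil-applied treatment went onto freshly sown seed in loam and sand; foliar treatment hit seedlings at the 1- to 4-leaf stage.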

[7] = tested on: barnyardgrass (Echinochloa crus-galli); experiment: as above
Method in brief: as §2

[8] = tested on: oilseed rape (Brassica napus); experiment: as above
Method in brief: as §2

[9] = tested on: smartweed (ladysthumb smartweed, Polygonum persicaria); experiment: Test E pre-/postemergence greenhouse test, plant response rating 0-100; settings: scale 0 to 100; for Smartweed plant response rating: Preemergence
[10] = Postemergence, 250 g ai/ha, scale 0 to 100
[11] = Postemergence, 500 g ai/ha, scale 0 to 100

O=C(c1ccccc1)c1cn(S(=O)(=O)CC(F)(F)F)nc1-c1cc(Cl)cc(Cl)c1 [Compound 3]
Plant response rating, Smartweed [1]: 65 | Ragweed plant response rating ([2]; 31 g ai/ha): 0 | Ragweed plant response rating ([2]; 62 g ai/ha): 0 | Ragweed plant response rating ([2]; 125 g ai/ha): 0 | Ragweed plant response rating ([2]; 250 g ai/ha): 100 | Ragweed plant response rating ([2]; 500 g ai/ha): 95 | Velvetleaf plant response rating ([3]; 31 g ai/ha): 20 | Velvetleaf plant response rating ([3]; 62 g ai/ha): 20 | Velvetleaf plant response rating ([3]; 125 g ai/ha): 35 | Velvetleaf plant response rating ([3]; 250 g ai/ha): 40 | Velvetleaf plant response rating ([3]; 500 g ai/ha): 80 | Surinam Grass plant response rating ([4]; 31 g ai/ha): 0 | Surinam Grass plant response rating ([4]; 62 g ai/ha): 0 | Surinam Grass plant response rating ([4]; 125 g ai/ha): 0 | Surinam Grass plant response rating ([4]; 250 g ai/ha): 0 | Surinam Grass plant response rating ([4]; 500 g ai/ha): 0 | Goosegrass plant response rating ([5]; 31 g ai/ha): 0 | Goosegrass plant response rating ([5]; 62 g ai/ha): 0 | Goosegrass plant response rating ([5]; 125 g ai/ha): 0 | Goosegrass plant response rating ([5]; 250 g ai/ha): 35 | Goosegrass plant response rating ([5]; 500 g ai/ha): 35 | Plant response rating (0 to 100), Waterhemp ([6]; Postemergence, 62 g ai/ha): 90 | Plant response rating (0 to 100), Waterhemp ([6]; Postemergence, 125 g ai/ha): 90 | Plant response rating, Waterhemp [6, 10]: 90 | Plant response rating, Waterhemp [6, 11]: 95 | Plant response rating, Waterhemp ([6]; Preemergence, 62 g ai/ha): 100 | Plant response rating, Waterhemp ([6]; Preemergence, 125 g ai/ha): 100 | Plant response rating, Waterhemp ([6]; Preemergence, 250 g ai/ha): 100 | Plant response rating, Waterhemp ([6]; Preemergence, 500 g ai/ha): 100 | Plant response rating, Waterhemp ([6]; Preemergence, 0 to 100 scale (0 no effect, 100 complete control), rate 500 g ai/ha): 100 | Plant response rating (0 to 100), Barnyardgrass ([7]; Postemergence, 62 g ai/ha): 0 | Plant response rating, Barnyardgrass ([7]; Postemergence, 125 g ai/ha, scale 0 to 100): 0 | Plant response rating, Barnyardgrass [7, 10]: 5 | Plant response rating, Barnyardgrass [7, 11]: 10 | Plant response rating, Barnyardgrass ([7]; Preemergence, 62 g ai/ha): 0 | Plant response rating, Barnyardgrass ([7]; Preemergence, 125 g ai/ha): 0 | Plant response rating, Barnyardgrass ([7]; Preemergence, 250 g ai/ha): 0 | Plant response rating, Barnyardgrass ([7]; Preemergence, 500 g ai/ha): 0 | Plant response rating (0 to 100), Oilseed Rape ([8]; Postemergence, 62 g ai/ha): 60 | Plant response rating (0 to 100), Oilseed Rape ([8]; Postemergence, 125 g ai/ha): 70 | Plant response rating, Oilseed Rape [8, 10]: 80 | Plant response rating, Oilseed Rape [8, 11]: 85 | Plant response rating, Oilseed Rape ([8]; Preemergence, 62 g ai/ha): 40 | Plant response rating, Oilseed Rape ([8]; Preemergence, 125 g ai/ha): 80 | Plant response rating, Oilseed Rape ([8]; Preemergence, 250 g ai/ha): 80 | Plant response rating, Oilseed Rape ([8]; Preemergence, 500 g ai/ha): 100 | Plant response rating, Smartweed ([9]; Postemergence, 500 g ai/ha): 90 | Smartweed plant response rating ([9]; 31 g ai/ha): 0 | Smartweed plant response rating ([9]; 62 g ai/ha): 0 | Smartweed plant response rating ([9]; 125 g ai/ha): 0 | Smartweed plant response rating ([9]; 250 g ai/ha): 0 | Smartweed plant response rating ([9]; 500 g ai/ha): 0
